The values that follow come from patent US7928063B2, “Analogs of human growth hormone-releasing hormone, their preparation and use” (Instytut Farmaceutyczny, priority 2001, dated 2011).

Like-named read-outs stand apart in the source and are kept apart here. Square brackets hold non-standard residues; d marks the D form. Peptide text beside a SMILES is read from it. * marks the point of attachment. Desaminotyrosyl = O=C(CCc1ccc(O)cc1)*; hArg = N=C(N)NCCCC[C@H](N)C(=O)O; Agb = N=C(N)NCC[C@H](N)C(=O)O; Agp = N=C(N)NC[C@H](N)C(=O)O; Nle = CCCC[C@H](N)C(=O)O; Orn = NCCC[C@H](N)C(=O)O Where only a bound is given, the exact number is not on record here.

This data set relates to trypsin. Kind of data set: Trypsin digestion test (enzymatic resistance, HPLC). The class given is in vitro ADME. Particulars: for Resistance to trypsin digestion (in words): after 30 minutes; for remaining at 0.5 h, 0.4 mg/ml / remaining at 1 h, 0.4 mg/ml: isolated enzyme trypsin. How it is done:
The compounds prepared were also tested for enzymatic resistance in the trypsin digestion test. […] Subsequently, a trypsin solution was added (100 μl; 0.02 mg/ml; Serva, 36 U/mg). […] An aliquot (500 μl) was withdrawn and diluted with 0.5 M acetic acid (1 ml), then lyophilized. The material obtained was analyzed by HPLC, using a Knauer system with an Eurospher 100 C18 (4.6×250 mm, 5 micron) column. The following solvent systems were used: A, 0.1% TFA in water; […]

The mark [1] stands for this setting: trypsin, pH 8.5, 37° C., digestion time 30 min., read-out: % Unchanged compound.
The mark [2] stands for this setting: trypsin, pH 8.5, 37° C., digestion time 60 min., read-out: % Unchanged compound.

Regarding `CCCC[C@H](NC(=O)[C@@H](NC(=O)[C@H](CC(=O)O)NC(=O)[C@H](CCC(N)=O)NC(=O)[C@H](CC(C)C)NC(=O)[C@H](CC(C)C)NC(=O)[C@H](CCCN)NC(=O)[C@H](CCCCNC(=N)N)NC(=O)[C@H](C)NC(=O)[C@H](CO)NC(=O)[C@H](CC(C)C)NC(=O)[C@H](CCC(N)=O)NC(=O)[C@H](C)NC(=O)[C@H](CC(C)C)NC(=O)[C@@H](NC(=O)[C@H](CCCN)NC(=O)[C@H](CCCCNC(=N)N)NC(=O)[C@H](Cc1ccc(O)cc1)NC(=O)[C@H](CO)NC(=O)[C@H](CC(N)=O)NC(=O)[C@@H](NC(=O)[C@H](Cc1ccccc1)NC(=O)[C@@H](NC(=O)[C@H](C)NC(=O)[C@H](CC(=O)O)NC(=O)[C@H](C)NC(=O)CCc1ccc(O)cc1)[C@@H](C)CC)[C@@H](C)O)C(C)C)[C@@H](C)CC)C(=O)N[C@@H](CC(=O)O)C(=O)N[C@@H](CCCCNC(=N)N)C(N)=O` [Compound 2, Dat-Ala-Asp-Ala-Ile-Phe-Thr-Asn-Ser-Tyr^10-hArg-Orn-Val-Leu-Ala-Gln-Leu-Ser-Ala-hArg^20-Orn-Leu-Leu-Gln-Asp-Ile-Nle-Asp-hArg^29-NH2] (Desaminotyrosyl-ADAIFTNSY[hArg][Orn]VLAQLSA[hArg][Orn]LLQDI[Nle]D[hArg]-NH2), the “Resistance to trypsin digestion (in words)” value was “unchanged”. In addition, the remaining at 0.5 h, 0.4 mg/ml under setting [1] is more than 99%. Further, the remaining at 1 h, 0.4 mg/ml under setting [2] is more than 99%.
For `CCCC[C@H](NC(=O)[C@@H](NC(=O)[C@H](CC(=O)O)NC(=O)[C@H](CCC(N)=O)NC(=O)[C@H](CC(C)C)NC(=O)[C@H](CC(C)C)NC(=O)[C@H](CCNC(=N)N)NC(=O)[C@H](CCNC(=N)N)NC(=O)[C@H](C)NC(=O)[C@H](CO)NC(=O)[C@H](CC(C)C)NC(=O)[C@H](CCC(N)=O)NC(=O)[C@H](C)NC(=O)[C@H](CC(C)C)NC(=O)[C@@H](NC(=O)[C@H](CCNC(=N)N)NC(=O)[C@H](CCNC(=N)N)NC(=O)[C@H](Cc1ccc(O)cc1)NC(=O)[C@H](CO)NC(=O)[C@H](CC(N)=O)NC(=O)[C@@H](NC(=O)[C@H](Cc1ccccc1)NC(=O)[C@@H](NC(=O)[C@H](C)NC(=O)[C@H](CC(=O)O)NC(=O)[C@H](C)NC(=O)CCc1ccc(O)cc1)[C@@H](C)CC)[C@@H](C)O)C(C)C)[C@@H](C)CC)C(=O)N[C@@H](CC(=O)O)C(=O)N[C@@H](CCNC(=N)N)C(N)=O` [Compound 3, Dat-Ala-Asp-Ala-Ile-Phe-Thr-Asn-Ser-Tyr^10-Gab-Gab-Val-Leu-Ala-Gln-Leu-Ser-Ala-Gab-Gab-Leu-Leu-Gln-Asp-Ile-Nle-Asp-Gab-NH2] (Desaminotyrosyl-ADAIFTNSY[Agb][Agb]VLAQLSA[Agb][Agb]LLQDI[Nle]D[Agb]-NH2), for the setting “pH 8.5”, the remaining at 0.5 h, 0.4 mg/ml came out at 86% and the remaining at 1 h, 0.4 mg/ml was 72%.
On to `CCCC[C@H](NC(=O)[C@@H](NC(=O)[C@H](CC(=O)O)NC(=O)[C@H](CCC(N)=O)NC(=O)[C@H](CC(C)C)NC(=O)[C@H](CC(C)C)NC(=O)[C@H](CCNC(=N)N)NC(=O)[C@H](CCNC(=N)N)NC(=O)[C@H](C)NC(=O)[C@H](CO)NC(=O)[C@H](CC(C)C)NC(=O)[C@H](CCC(N)=O)NC(=O)[C@H](C)NC(=O)[C@H](CC(C)C)NC(=O)[C@@H](NC(=O)[C@H](CCNC(=N)N)NC(=O)[C@H](CCCCNC(=N)N)NC(=O)[C@H](Cc1ccc(O)cc1)NC(=O)[C@H](CO)NC(=O)[C@H](CC(N)=O)NC(=O)[C@@H](NC(=O)[C@H](Cc1ccccc1)NC(=O)[C@@H](NC(=O)[C@H](C)NC(=O)[C@H](CC(=O)O)NC(=O)[C@H](C)NC(=O)CCc1ccc(O)cc1)[C@@H](C)CC)[C@@H](C)O)C(C)C)[C@@H](C)CC)C(=O)N[C@@H](CC(=O)O)C(=O)N[C@@H](CCNC(=N)N)C(N)=O` [Compound 4, Dat-Ala-Asp-Ala-Ile-Phe-Thr-Asn-Ser-Tyr^10-hArg-Gab-Val-Leu-Ala-Gln-Leu-Ser-Ala-Gab-Gab-Leu-Leu-Gln-Asp-Ile-Nle-Asp-Gab-NH2] (Desaminotyrosyl-ADAIFTNSY[hArg][Agb]VLAQLSA[Agb][Agb]LLQDI[Nle]D[Agb]-NH2), for which, for the setting “pH 8.5”, the remaining at 0.5 h, 0.4 mg/ml turned out to be 82% and the remaining at 1 h, 0.4 mg/ml came out at 67%.
For `CCCC[C@H](NC(=O)[C@@H](NC(=O)[C@H](CC(=O)O)NC(=O)[C@H](CCC(N)=O)NC(=O)[C@H](CC(C)C)NC(=O)[C@H](CC(C)C)NC(=O)[C@H](CCCCNC(=N)N)NC(=O)[C@H](CCCCNC(=N)N)NC(=O)[C@H](C)NC(=O)[C@H](CO)NC(=O)[C@H](CC(C)C)NC(=O)[C@H](CCC(N)=O)NC(=O)[C@H](C)NC(=O)[C@H](CC(C)C)NC(=O)[C@@H](NC(=O)[C@H](CCCCNC(=N)N)NC(=O)[C@H](CCNC(=N)N)NC(=O)[C@H](Cc1ccc(O)cc1)NC(=O)[C@H](CO)NC(=O)[C@H](CC(N)=O)NC(=O)[C@@H](NC(=O)[C@H](Cc1ccccc1)NC(=O)[C@@H](NC(=O)[C@H](C)NC(=O)[C@H](CC(=O)O)NC(=O)[C@H](C)NC(=O)CCc1ccc(O)cc1)[C@@H](C)CC)[C@@H](C)O)C(C)C)[C@@H](C)CC)C(=O)N[C@@H](CC(=O)O)C(=O)N[C@H](CCCNC(=N)N)C(N)=O` [Compound 5, Dat-Ala-Asp-Ala-Ile-Phe-Thr-Asn-Ser-Tyr^10-Gab-hArg-Val-Leu-Ala-Gln-Leu-Ser-Ala-hArg-hArg-Leu-Leu-Gln-Asp-Ile-Nle-Asp-D-Arg-NH2] (Desaminotyrosyl-ADAIFTNSY[Agb][hArg]VLAQLSA[hArg][hArg]LLQDI[Nle]D[dR]-NH2), the remaining at 0.5 h, 0.4 mg/ml under setting [1] is 80%. In addition, under setting [2], the remaining at 1 h, 0.4 mg/ml was found to be 51%.
As to `CCCC[C@H](NC(=O)[C@@H](NC(=O)[C@H](CC(=O)O)NC(=O)[C@H](CCC(N)=O)NC(=O)[C@H](CC(C)C)NC(=O)[C@H](CC(C)C)NC(=O)[C@H](CCCCNC(=N)N)NC(=O)[C@H](CCCCNC(=N)N)NC(=O)[C@H](C)NC(=O)[C@H](CO)NC(=O)[C@H](CC(C)C)NC(=O)[C@H](CCC(N)=O)NC(=O)[C@H](C)NC(=O)[C@H](CC(C)C)NC(=O)[C@@H](NC(=O)[C@H](CCNC(=N)N)NC(=O)[C@H](CCCCNC(=N)N)NC(=O)[C@H](Cc1ccc(O)cc1)NC(=O)[C@H](CO)NC(=O)[C@H](CC(N)=O)NC(=O)[C@@H](NC(=O)[C@H](Cc1ccccc1)NC(=O)[C@@H](NC(=O)[C@H](C)NC(=O)[C@H](CC(=O)O)NC(=O)[C@H](C)NC(=O)CCc1ccc(O)cc1)[C@@H](C)CC)[C@@H](C)O)C(C)C)[C@@H](C)CC)C(=O)N[C@@H](CC(=O)O)C(=O)N[C@H](CCCNC(=N)N)C(N)=O` [Compound 6, Dat-Ala-Asp-Ala-Ile-Phe-Thr-Asn-Ser-Tyr^10-hArg-Gab-Val-Leu-Ala-Gln-Leu-Ser-Ala-hArg-hArg-Leu-Leu-Gln-Asp-Ile-Nle-Asp-D-Arg-NH2] (Desaminotyrosyl-ADAIFTNSY[hArg][Agb]VLAQLSA[hArg][hArg]LLQDI[Nle]D[dR]-NH2), under “pH 8.5”, the remaining at 0.5 h, 0.4 mg/ml is 85% and the remaining at 1 h, 0.4 mg/ml came out at 73%.
On to `CCCC[C@H](NC(=O)[C@@H](NC(=O)[C@H](CC(=O)O)NC(=O)[C@H](CCC(N)=O)NC(=O)[C@H](CC(C)C)NC(=O)[C@H](CC(C)C)NC(=O)[C@H](CNC(=N)N)NC(=O)[C@H](CNC(=N)N)NC(=O)[C@H](C)NC(=O)[C@H](CO)NC(=O)[C@H](CC(C)C)NC(=O)[C@H](CCC(N)=O)NC(=O)[C@H](C)NC(=O)[C@H](CC(C)C)NC(=O)[C@@H](NC(=O)[C@H](CNC(=N)N)NC(=O)[C@H](CNC(=N)N)NC(=O)[C@H](Cc1ccc(O)cc1)NC(=O)[C@H](CO)NC(=O)[C@H](CC(N)=O)NC(=O)[C@@H](NC(=O)[C@H](Cc1ccccc1)NC(=O)[C@@H](NC(=O)[C@H](C)NC(=O)[C@H](CC(=O)O)NC(=O)[C@H](C)NC(=O)CCc1ccc(O)cc1)[C@@H](C)CC)[C@@H](C)O)C(C)C)[C@@H](C)CC)C(=O)N[C@@H](CC(=O)O)C(=O)N[C@@H](CNC(=N)N)C(N)=O` [Compound 7, Dat-Ala-Asp-Ala-Ile-Phe-Thr-Asn-Ser-Tyr^10-Gap-Gap-Val-Leu-Ala-Gln-Leu-Ser-Ala-Gap-Gap-Leu-Leu-Gln-Asp-Ile-Nle-Asp-Gap-NH2] (Desaminotyrosyl-ADAIFTNSY[Agp][Agp]VLAQLSA[Agp][Agp]LLQDI[Nle]D[Agp]-NH2), for which, where the note is “pH 8.5”, the remaining at 0.5 h, 0.4 mg/ml amounted to 75% and the remaining at 1 h, 0.4 mg/ml came out at 68%.
For the compound `CCCC[C@H](NC(=O)[C@@H](NC(=O)[C@H](CC(=O)O)NC(=O)[C@H](CCC(N)=O)NC(=O)[C@H](CC(C)C)NC(=O)[C@H](CC(C)C)NC(=O)[C@H](CNC(=N)N)NC(=O)[C@H](CCCCNC(=N)N)NC(=O)[C@H](C)NC(=O)[C@H](CO)NC(=O)[C@H](CC(C)C)NC(=O)[C@H](CCC(N)=O)NC(=O)[C@H](C)NC(=O)[C@H](CC(C)C)NC(=O)[C@@H](NC(=O)[C@H](CNC(=N)N)NC(=O)[C@H](CNC(=N)N)NC(=O)[C@H](Cc1ccc(O)cc1)NC(=O)[C@H](CO)NC(=O)[C@H](CC(N)=O)NC(=O)[C@@H](NC(=O)[C@H](Cc1ccccc1)NC(=O)[C@@H](NC(=O)[C@H](C)NC(=O)[C@H](CC(=O)O)NC(=O)[C@H](C)NC(=O)CCc1ccc(O)cc1)[C@@H](C)CC)[C@@H](C)O)C(C)C)[C@@H](C)CC)C(=O)N[C@@H](CC(=O)O)C(=O)N[C@@H](CNC(=N)N)C(N)=O` [Compound 8, Dat-Ala-Asp-Ala-Ile-Phe-Thr-Asn-Ser-Tyr^10-Gap-Gap-Val-Leu-Ala-Gln-Leu-Ser-Ala-hArg-Gap-Leu-Leu-Gln-Asp-Ile-Nle-Asp-Gap-NH2] (Desaminotyrosyl-ADAIFTNSY[Agp][Agp]VLAQLSA[hArg][Agp]LLQDI[Nle]D[Agp]-NH2), the “Resistance to trypsin digestion (in words)” value is listed as “unchanged”. The remaining at 0.5 h, 0.4 mg/ml under setting [1] is more than 99%. The remaining at 1 h, 0.4 mg/ml under setting [2] is more than 99%.
